The values that follow come from patent US4954510A, “Antiviral agent containing lactam compound” (Meiji Seika Kaisha, Ltd., priority 1987, dated 1990).

Data set [1] can be described thus: inhibition of growth of normal non-infected cells (MT-2). Particulars: human; MT-2 cells without HIV, 7 days, viable cell count by colorimetry; read-out: IC50 (concentration giving a 50% inhibition of growth of normal non-infected cells). Type of data set: cell-based, human. On the procedure: (§1) Namely, the host human T-lymphotropic MT-2 cell line is transplanted on a microtiter plate and a series of dilutions of the test compounds shown in the table below are added with or without addition of HIV, followed by incubation for 7 days. For evaluation, the residual viable cell count is then determined by colorimetry.
(§2) In the above table, EC50 means the concentration of the test compound giving a 50% decrease in the cytocidal effect of HIV and IC50 means the concentration of the test compound giving a 50% inhibition of growth of normal non-infected cells.

A short description of data set [2]: acute toxicity (LD50) in mice. Particulars: mouse, in vivo. The method, then: The LD50 value of D-glucaro-δ-lactam sodium salt in mice is not less than 3 g/kg by the intraveous injection and not less than 5 g/kg by the oral administration. The LD50 value of D-glucaro-δ-lactam methyl ester in mice is not less than 5 g/kg by the intraveous injection and not less than 10 g/kg by the oral administration. With respect to 6-O-triphenylmethyl-D-gluco-δ-lactam, the LD50 value is not less than 300 mg/kg in case of the subcutaneous administration in mice.

In data set [3] the test system is HIV. Nature of the data set: in vitro anti-HIV activity: decrease in the cytocidal effect of HIV on MT-2 cells. Type of data set: cell-based. Particulars: for EC50: Human immunodeficiency virus 1, MT2, 168 h, read-out: EC50 (concentration giving a 50% decrease in the cytocidal effect of HIV); for TI50 (IC50/EC50): ratio IC50/EC50, 10080 min. On the procedure:
as §1, §2

For data set [4], the system named is human T-lymphotropic MT-2 cell line. In words: inhibition of growth of normal non-infected cells (MT-2). Type of data set: cell-based. Particulars: Homo sapiens, MT2, 168 h; MT-2 cells without HIV, 7 days, viable cell count by colorimetry; read-out: IC50 (concentration giving a 50% inhibition of growth of normal non-infected cells). On the procedure: as §1, §2

Data set [5] has as its system AIDS patients. Particulars: in words, cited from earlier work.

Values after ≈ are worked out from the molar mass of the structure shown. Structures can show the parent of a compound that is named as a salt. Where two headings read alike, the source gives them in different places.

By LD50 is commonly meant the dose expected to kill half of the subjects tested. A lower LD50 goes with a more toxic substance. As to `O=C1N[C@H](COC(c2ccccc2)(c2ccccc2)c2ccccc2)[C@@H](O)[C@H](O)[C@H]1O` [6-O-triphenylmethyl-D-gluco-δ-lactam], the CC50 at 168 h in data set [1] worked out at 31.7 µg/mL (≈ 75.6 µM). In addition, in data set [2] (sc, subcutaneous administration), the median lethal dose (LD50) is not below 300 mg/kg. For the same molecule, in data set [3], the EC50 worked out at 0.0386 ng/mL (≈ 9.2e-05 µM) and the “TI50 (IC50/EC50)” value was 8.19 × 10^5.
Consider `O=C(O)[C@H]1NC(=O)[C@H](O)[C@@H](O)[C@@H]1O` [D-glucaro-δ-lactam calcium salt], for which the IC50 in data set [4] is more than 250 µg/mL. The EC50 in data set [3] (MT-2 cells, with HIV, 7 days, viable cell count by colorimetry) was less than 0.25 ng/mL. For the same molecule, the “TI50 (IC50/EC50)” value in data set [3] was > 1.00 × 10^6.
As for `COC(=O)[C@H]1NC(=O)[C@H](O)[C@@H](O)[C@@H]1O` [D-glucaro-δ-lactam methyl ester], the values for the LD50 in data set [2] (intravenous injection) and in data set [2] (oral administration) were not below 5000 mg/kg and not below 10000 mg/kg, respectively.
Regarding `O=C(O)[C@H]1NC(=O)[C@H](O)[C@@H](O)[C@@H]1O` [D-glucaro-δ-lactam sodium salt], the LD50 in data set [2] (intravenous injection) was not below 3000 mg/kg; in data set [2] (oral administration), not below 5000 mg/kg.
As for `Cc1cn([C@H]2C[C@H](N=[N+]=[N-])[C@@H](CO)O2)c(=O)[nH]c1=O` [azidothymidine (AZT), azidothymidine], the “side effects in clinical application” value in data set [5] (listed as AZT) was “side effects of AZT on bone marrow”; in data set [5], “serious side effects such as bone marrow depression, anemia and neurologic disorders such as headache and convulsion”.
